Source: publication PMC7865522, “Analyzing Kinase Similarity in Small Molecule and Protein Structural Space to Explore the Limits of Multi-Target Screening” (Molecules, 2021)

Tests used:
EGFR [1] = molecular target: T1, EGFR (Homo sapiens, UniProt P00533); experiment: Eurofins in vitro kinase inhibition assay; type: biochemical; conditions: compound 20 µM; mean (SD); above 50% significant, 25-50% weak
T1 construct: purchased DiscoverX (KINOMEscan service); host or cells: E. coli BL21-derived host (T7 phage) or HEK-293
T1 sequence (P00533 25-1210): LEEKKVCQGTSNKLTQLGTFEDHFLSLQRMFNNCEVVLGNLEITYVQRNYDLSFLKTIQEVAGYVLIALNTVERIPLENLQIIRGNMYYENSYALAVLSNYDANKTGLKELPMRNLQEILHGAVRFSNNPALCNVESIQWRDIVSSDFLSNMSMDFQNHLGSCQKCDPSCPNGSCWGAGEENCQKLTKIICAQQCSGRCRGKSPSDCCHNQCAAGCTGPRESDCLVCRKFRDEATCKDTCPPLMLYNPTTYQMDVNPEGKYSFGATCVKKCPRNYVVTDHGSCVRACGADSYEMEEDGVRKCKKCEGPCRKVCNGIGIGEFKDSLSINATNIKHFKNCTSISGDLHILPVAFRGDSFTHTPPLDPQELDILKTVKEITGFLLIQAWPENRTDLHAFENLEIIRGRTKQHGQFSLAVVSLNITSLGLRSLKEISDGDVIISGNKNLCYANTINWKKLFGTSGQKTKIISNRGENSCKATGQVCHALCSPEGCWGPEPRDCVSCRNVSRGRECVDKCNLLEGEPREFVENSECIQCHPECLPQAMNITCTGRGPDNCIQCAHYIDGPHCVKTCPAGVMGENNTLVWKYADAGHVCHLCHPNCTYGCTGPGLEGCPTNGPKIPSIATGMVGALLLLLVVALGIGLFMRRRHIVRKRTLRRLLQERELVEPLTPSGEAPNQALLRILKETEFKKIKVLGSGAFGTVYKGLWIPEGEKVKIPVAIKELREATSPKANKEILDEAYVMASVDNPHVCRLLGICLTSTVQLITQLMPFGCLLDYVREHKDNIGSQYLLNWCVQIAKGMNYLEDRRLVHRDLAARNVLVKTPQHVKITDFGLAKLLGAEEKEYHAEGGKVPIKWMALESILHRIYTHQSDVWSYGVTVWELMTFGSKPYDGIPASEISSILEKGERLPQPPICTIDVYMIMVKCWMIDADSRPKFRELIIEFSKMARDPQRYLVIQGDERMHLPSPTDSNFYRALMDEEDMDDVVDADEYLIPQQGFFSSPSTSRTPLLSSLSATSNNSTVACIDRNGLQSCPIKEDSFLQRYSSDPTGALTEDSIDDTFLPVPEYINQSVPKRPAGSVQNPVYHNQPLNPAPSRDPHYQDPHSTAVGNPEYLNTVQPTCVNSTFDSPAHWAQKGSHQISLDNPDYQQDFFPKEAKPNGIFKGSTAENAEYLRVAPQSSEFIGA
Description: (§1) Kinase inhibition assays for EGFR, ErbB2, PI3K and BRAF were carried out by Eurofins Cerep following the protocols of Weber et al. (EGFR), Quian et al. (ErbB2), Sinnamon et al. (PI3K) and Kupcho et al. (BRAF). Briefly, except for PI3K, compounds were incubated with the respective kinase, ATP, and a substrate analog, and the effect of each compound on phosphorylation was measured. In the case of PI3K, the displacement of biotinylated PIP3 from a PIP3-binding complex by unlabelled PIP3 (produced from PIP2 by PI3K) was measured by Homogeneous Time Resolved Fluorescence (HTRF).
(§2) Finally, inhibition of the respective kinases is calculated as the percentage inhibition of control activity.
(§3) Table S3. Experimental results from the Euroﬁns assay. Inhibition of four kinases (EGFR, PI3K, ErbB2, BRAF) was measured at compound concentrations of 20 µM. Inhibition was calculated as % inhibition of control activity. According to CRO, values above 50% inhibition represent signiﬁcant inhibition, values above 25% weak inhibition effect and values below 25% as well as negative values are usually not signiﬁcant. Results are reported in mean (SD) format. […]
(§4) a Compound interfered with assay readout.

ErbB2 [2] = molecular target: T2, ErbB2 (Homo sapiens, UniProt P04626); experiment: Eurofins in vitro kinase inhibition assay; type: biochemical; conditions: compound 20 µM; mean (SD); above 50% significant, 25-50% weak
T2 construct: purchased DiscoverX (KINOMEscan service); host or cells: E. coli BL21-derived host (T7 phage) or HEK-293
T2 sequence (P04626 23-1255): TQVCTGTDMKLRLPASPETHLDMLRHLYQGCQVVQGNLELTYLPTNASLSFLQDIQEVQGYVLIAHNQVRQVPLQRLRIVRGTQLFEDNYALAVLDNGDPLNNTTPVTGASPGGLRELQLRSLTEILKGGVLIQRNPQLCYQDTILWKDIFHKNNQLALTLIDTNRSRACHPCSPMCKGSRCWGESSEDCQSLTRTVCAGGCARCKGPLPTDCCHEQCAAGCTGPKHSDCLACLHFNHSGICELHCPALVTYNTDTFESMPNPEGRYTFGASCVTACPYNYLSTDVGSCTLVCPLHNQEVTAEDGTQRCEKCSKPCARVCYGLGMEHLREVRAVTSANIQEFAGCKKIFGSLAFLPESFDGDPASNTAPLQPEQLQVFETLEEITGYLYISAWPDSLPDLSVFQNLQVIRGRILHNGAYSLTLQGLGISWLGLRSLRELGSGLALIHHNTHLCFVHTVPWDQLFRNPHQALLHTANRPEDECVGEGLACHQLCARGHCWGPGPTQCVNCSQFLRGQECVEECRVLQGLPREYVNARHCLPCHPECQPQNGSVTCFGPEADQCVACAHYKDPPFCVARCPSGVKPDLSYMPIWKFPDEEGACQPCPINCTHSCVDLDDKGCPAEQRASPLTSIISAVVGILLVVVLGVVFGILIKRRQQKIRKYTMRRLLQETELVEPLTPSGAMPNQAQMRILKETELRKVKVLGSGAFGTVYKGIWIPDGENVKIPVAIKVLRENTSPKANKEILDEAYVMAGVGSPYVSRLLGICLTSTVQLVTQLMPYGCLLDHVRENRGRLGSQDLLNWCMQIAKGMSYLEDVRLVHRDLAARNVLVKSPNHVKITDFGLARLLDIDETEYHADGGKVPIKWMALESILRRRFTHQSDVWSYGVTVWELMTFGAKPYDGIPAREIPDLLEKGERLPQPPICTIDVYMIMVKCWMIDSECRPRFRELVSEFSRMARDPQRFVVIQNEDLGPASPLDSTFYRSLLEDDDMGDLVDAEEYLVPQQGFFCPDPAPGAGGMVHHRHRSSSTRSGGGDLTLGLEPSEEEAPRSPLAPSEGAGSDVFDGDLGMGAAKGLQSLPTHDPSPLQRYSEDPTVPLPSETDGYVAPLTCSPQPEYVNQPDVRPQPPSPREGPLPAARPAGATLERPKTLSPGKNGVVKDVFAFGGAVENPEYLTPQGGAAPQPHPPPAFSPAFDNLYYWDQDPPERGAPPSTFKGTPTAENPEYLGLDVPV
Description: as §1, §2, §3, §4

BRAF [3] = molecular target: T3, BRAF (Homo sapiens, UniProt P15056); experiment: Eurofins in vitro kinase inhibition assay; type: biochemical; conditions: compound 20 µM; mean (SD); above 50% significant, 25-50% weak
T3 construct: purchased DiscoverX (KINOMEscan service); host or cells: E. coli BL21-derived host (T7 phage) or HEK-293
Description: as §1, §2, §3, §4

PI3K [4] = molecular target: T4, PI3K (Homo sapiens, UniProt P42336); experiment: DiscoverX KINOMEscan competition binding assay; design: purchased DiscoverX (KINOMEscan service); host or cells: E. coli BL21-derived host (T7 phage) or HEK-293; conditions: compound 10 µM; lower values = higher affinity; below 35% = significant binding
Description: (§5) Ligand binding experiments for the molecules selected from Profiles 1 and 2 towards nine kinases (EGFR, ErbB2, LCK, CDK2, BRAF, MET, p38α, PI3K and VEGFR2) and for molecules selected from Profiles 3 and 4 towards four kinases (EGFR, ErbB2, BRAF and VEGFR2) were carried out by DiscoverX using the supplied protocol as described in the Supplementary Materials. Briefly, ligand affinity was measured by competition with a resin-bound standard ligand and washed-off kinase concentration was determined via qPCR.
(§6) Summarizing, binding of a compound to a kinase was tested in comparison to a control compound (see Table S2). […]
(§7) 1.1. DiscoverX kinase assay
(§8) For most assays, kinase-tagged T7 phage strains were grown in parallel in 24-well blocks in an E.coli host derived from the BL21 strain. E.coli were grown to log-phase and infected with T7 phage from a frozen stock (multiplicity of infection = 0.4) and incubated with shaking at 32°C until lysis (90-150 minutes). The lysates were centrifuged (6,000 x g) and ﬁltered (0.2µm) to remove cell debris.
(§9) The remaining kinases were produced in HEK-293 cells and subsequently tagged with DNA for qPCR detection. Streptavidin-coated magnetic beads were treated with biotinylated small molecule ligands for 30 minutes at room temperature to generate afﬁnity resins for the kinases. The liganded beads were blocked with excess biotin and washed with blocking buffer (SeaBlock [Pierce], 1% BSA, 0.05% Tween 20, 1 mM DTT) to remove unbound ligands and to reduce non-speciﬁc phage binding. Binding reactions were assembled by combining kinases, liganded afﬁnity beads, and test compounds in 1x binding buffer (20% SeaBlock, 0.17x PBS, 0.05% Tween 20, 6 mM DTT). Test compounds were prepared as 40x stocks in 100% DMSO and directly diluted into the assay. All reactions were performed in polypropylene 384-well plates in a ﬁnal volume of 0.02 ml. The assay plates were incubated at room temperature with shaking for 1 hour and the afﬁnity beads were washed with wash buffer (1x PBS, 0.05% Tween 20). The beads were then re-suspended in elution buffer (1x PBS, 0.05% Tween 20, 0.5 µM non-biotinylated afﬁnity ligand) and incubated at room temperature with shaking for 30 minutes. The kinase concentration in the eluates was measured by qPCR. […]
(§10) Table S2. Experimental % control values from the DiscoverX kinase assay. Compounds were tested against the nine kinases EGFR, ErbB2, LCK, CDK2, BRAF, MET, p38α, PI3K and VEGFR2, unless otherwise stated. Binding of kinase and compound were tested at a compound concentration of 10 µM and in comparison to a control compound. Lower values indicate a higher afﬁnity of the compound to the protein and values below 35% indicate signiﬁcant binding according to information of the CRO. […]
(§11) a Compounds were only tested against four kinases (EGFR, ErbB2, BRAF and VEGFR2). b Compound was selected independently from two docking proﬁles and tested separately during

LCK = molecular target: T5, LCK (Homo sapiens, UniProt P06239); experiment: DiscoverX KINOMEscan competition binding assay; conditions: compound 10 µM; lower values = higher affinity; below 35% = significant binding
T5 construct: purchased DiscoverX (KINOMEscan service); host or cells: E. coli BL21-derived host (T7 phage) or HEK-293
T5 sequence (P06239 whole entry): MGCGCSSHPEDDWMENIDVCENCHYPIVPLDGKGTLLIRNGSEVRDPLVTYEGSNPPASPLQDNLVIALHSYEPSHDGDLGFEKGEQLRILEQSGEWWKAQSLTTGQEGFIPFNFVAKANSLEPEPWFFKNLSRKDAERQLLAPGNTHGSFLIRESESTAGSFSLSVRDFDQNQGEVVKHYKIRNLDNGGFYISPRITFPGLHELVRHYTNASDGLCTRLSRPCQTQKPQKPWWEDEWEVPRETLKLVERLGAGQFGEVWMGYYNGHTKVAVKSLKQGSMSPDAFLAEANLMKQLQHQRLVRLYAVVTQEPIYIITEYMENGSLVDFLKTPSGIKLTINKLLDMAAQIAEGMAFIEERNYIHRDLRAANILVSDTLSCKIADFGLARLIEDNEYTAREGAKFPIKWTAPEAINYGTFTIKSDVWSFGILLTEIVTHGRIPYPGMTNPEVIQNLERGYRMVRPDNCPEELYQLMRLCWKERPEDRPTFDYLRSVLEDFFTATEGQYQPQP
Description: as §5, §6, §7, §8, §9, §10, §11

VEGFR2 = molecular target: T6, VEGFR2 (Homo sapiens, UniProt P35968); experiment: DiscoverX KINOMEscan competition binding assay; conditions: compound 10 µM; lower values = higher affinity; below 35% = significant binding
T6 construct: purchased DiscoverX (KINOMEscan service); host or cells: E. coli BL21-derived host (T7 phage) or HEK-293
T6 sequence (P35968 20-1356): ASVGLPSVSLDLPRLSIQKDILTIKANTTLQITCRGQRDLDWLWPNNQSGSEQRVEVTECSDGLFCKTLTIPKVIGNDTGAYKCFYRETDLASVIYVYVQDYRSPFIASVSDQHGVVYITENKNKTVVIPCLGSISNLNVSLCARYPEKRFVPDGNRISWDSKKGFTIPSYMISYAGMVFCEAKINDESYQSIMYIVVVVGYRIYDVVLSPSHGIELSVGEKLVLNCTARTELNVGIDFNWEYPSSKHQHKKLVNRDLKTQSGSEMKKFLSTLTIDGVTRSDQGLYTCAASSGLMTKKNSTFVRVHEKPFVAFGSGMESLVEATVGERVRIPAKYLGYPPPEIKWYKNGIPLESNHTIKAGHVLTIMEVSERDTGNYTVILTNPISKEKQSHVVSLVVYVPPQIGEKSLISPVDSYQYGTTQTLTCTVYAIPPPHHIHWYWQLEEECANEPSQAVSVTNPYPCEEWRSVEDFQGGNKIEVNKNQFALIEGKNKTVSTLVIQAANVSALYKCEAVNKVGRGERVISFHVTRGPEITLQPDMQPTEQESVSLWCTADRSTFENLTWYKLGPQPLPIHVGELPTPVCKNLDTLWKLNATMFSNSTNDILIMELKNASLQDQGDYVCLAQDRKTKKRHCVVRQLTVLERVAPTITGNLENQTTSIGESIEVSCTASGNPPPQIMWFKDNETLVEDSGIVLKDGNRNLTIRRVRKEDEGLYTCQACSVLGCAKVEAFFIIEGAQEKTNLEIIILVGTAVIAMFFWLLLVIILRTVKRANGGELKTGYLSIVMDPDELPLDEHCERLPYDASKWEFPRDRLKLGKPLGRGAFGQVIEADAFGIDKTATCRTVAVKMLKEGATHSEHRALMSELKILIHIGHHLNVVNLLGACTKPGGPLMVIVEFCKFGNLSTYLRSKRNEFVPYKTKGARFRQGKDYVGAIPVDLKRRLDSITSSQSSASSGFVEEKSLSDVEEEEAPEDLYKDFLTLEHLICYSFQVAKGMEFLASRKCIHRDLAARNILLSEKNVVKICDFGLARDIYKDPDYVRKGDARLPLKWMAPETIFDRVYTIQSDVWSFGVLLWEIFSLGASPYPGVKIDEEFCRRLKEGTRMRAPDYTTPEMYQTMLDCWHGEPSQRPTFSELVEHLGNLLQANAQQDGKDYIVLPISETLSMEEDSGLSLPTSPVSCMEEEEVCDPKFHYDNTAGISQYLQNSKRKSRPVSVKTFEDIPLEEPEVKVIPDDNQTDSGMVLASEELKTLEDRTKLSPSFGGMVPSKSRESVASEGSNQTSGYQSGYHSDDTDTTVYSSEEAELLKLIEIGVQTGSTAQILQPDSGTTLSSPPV
Description: as §5, §6, §7, §8, §9, §10, §11

p38α = molecular target: T7, p38α (Homo sapiens, UniProt Q16539); experiment: DiscoverX KINOMEscan competition binding assay; conditions: compound 10 µM; lower values = higher affinity; below 35% = significant binding
T7 construct: purchased DiscoverX (KINOMEscan service); host or cells: E. coli BL21-derived host (T7 phage) or HEK-293
T7 sequence (Q16539 whole entry): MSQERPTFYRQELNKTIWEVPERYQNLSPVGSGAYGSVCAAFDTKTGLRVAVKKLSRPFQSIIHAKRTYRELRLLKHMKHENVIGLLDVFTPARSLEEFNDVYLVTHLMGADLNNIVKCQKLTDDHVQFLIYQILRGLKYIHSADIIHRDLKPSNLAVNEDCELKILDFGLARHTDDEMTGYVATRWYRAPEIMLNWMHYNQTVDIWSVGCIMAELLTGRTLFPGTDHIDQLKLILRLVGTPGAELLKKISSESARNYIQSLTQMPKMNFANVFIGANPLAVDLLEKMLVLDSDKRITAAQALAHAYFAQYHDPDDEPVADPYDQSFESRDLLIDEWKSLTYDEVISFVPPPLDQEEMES
Description: as §5, §6, §7, §8, §9, §10, §11

MET = molecular target: T8, MET (Homo sapiens, UniProt P08581); experiment: DiscoverX KINOMEscan competition binding assay; conditions: compound 10 µM; lower values = higher affinity; below 35% = significant binding
T8 construct: purchased DiscoverX (KINOMEscan service); host or cells: E. coli BL21-derived host (T7 phage) or HEK-293
Description: as §5, §6, §7, §8, §9, §10, §11

EGFR [5] = molecular target: T1, EGFR; experiment: DiscoverX KINOMEscan competition binding assay; conditions: compound 10 µM; lower values = higher affinity; below 35% = significant binding
Description: as §5, §6, §7, §8, §9, §10, §11

ErbB2 [6] = molecular target: T2, ErbB2; experiment: DiscoverX KINOMEscan competition binding assay; conditions: compound 10 µM; lower values = higher affinity; below 35% = significant binding
Description: as §5, §6, §7, §8, §9, §10, §11

BRAF [7] = molecular target: T3, BRAF; experiment: DiscoverX KINOMEscan competition binding assay; conditions: compound 10 µM; lower values = higher affinity; below 35% = significant binding
Description: as §5, §6, §7, §8, §9, §10, §11

CDK2 = molecular target: T9, CDK2 (Homo sapiens, UniProt P24941); experiment: DiscoverX KINOMEscan competition binding assay; conditions: compound 10 µM; lower values = higher affinity; below 35% = significant binding
T9 construct: purchased DiscoverX (KINOMEscan service); host or cells: E. coli BL21-derived host (T7 phage) or HEK-293
Description: as §5, §6, §7, §8, §9, §10, §11

PI3K [8] = molecular target: T4, PI3K; experiment: Eurofins in vitro kinase inhibition assay (HTRF, PIP3 displacement); type: biochemical; design: purchased Eurofins Cerep (contract assay); conditions: compound 20 µM; mean (SD); above 50% significant, 25-50% weak
Description: as §1, §2, §3, §4

SMILES	% inhibition of control activity, EGFR (Eurofins) (EGFR [1])	% inhibition of control activity, ErbB2 (Eurofins) (ErbB2 [2])	% inhibition of control activity, BRAF (Eurofins) (BRAF [3])	% control, PI3K (DiscoverX) (PI3K [4]) [% control]	% control, LCK (DiscoverX) (LCK) [% control]	% control, VEGFR2 (DiscoverX) (VEGFR2) [% control]	% control, p38α (DiscoverX) (p38α) [% control]	% control, MET (DiscoverX) (MET) [% control]	% control, EGFR (DiscoverX) (EGFR [5]) [% control]	% control, ErbB2 (DiscoverX) (ErbB2 [6]) [% control]	% control, BRAF (DiscoverX) (BRAF [7]) [% control]	% control, CDK2 (DiscoverX) (CDK2) [% control]	% inhibition of control activity, PI3K (Eurofins) (PI3K [8])
C[C@H](COCC(F)(F)F)NC(=O)Cc1n[nH]c(=O)c2ccccc12 [DS04644]	3.4 (1.8) % inhibition	-7.4 (1.0) % inhibition	-14.7 (7.4) % inhibition	100	96	100	100	100	100	100	97	99	-2.8 (0.6) % inhibition
O=C(Cn1cnc2c(cnn2CCO)c1=O)NCc1ccccc1 [DS05168]	11.1 (1.8) % inhibition	2.8 (1.6) % inhibition	-12.4 (10.9) % inhibition	100	95	100	100	94	100	100	98	99	-1 (1.6) % inhibition
COc1ccc(-c2nn(C(C)=O)c3c2C(=O)CC(C)(C)C3)cc1 [DS18339]	15.3 (7.7) % inhibition	0.7 (1.1) % inhibition	-21.8 (9.5) % inhibition	100	89	97	99	100	97	100	100	100	-3.7 (0.3) % inhibition
CCc1nccc(-c2nccn2C(Cn2cccn2)c2ccccc2)n1 (centres unmarked) [DS23815]	10.7 (0.4) % inhibition	-7.2 (5.7) % inhibition	-19.7 (2.4) % inhibition	97	100	100	100	99	100	100	99	99	
CC1(C)C2CC=C(COC(=O)c3cnn4cccnc34)C1C2 (centres unmarked) [DS34376]	16.1 (7.5) % inhibition	-1.6 (1.9) % inhibition	-11.3 (4.2) % inhibition	100	100	100	100	100	90	100	92	99	-2 (0.8) % inhibition

The next lines start with the values.

% inhibition of control activity, EGFR (Eurofins) (EGFR [1])	% inhibition of control activity, ErbB2 (Eurofins) (ErbB2 [2])	% inhibition of control activity, BRAF (Eurofins) (BRAF [3])	% control, PI3K (DiscoverX) (PI3K [4]) [% control]	% control, LCK (DiscoverX) (LCK) [% control]	% control, VEGFR2 (DiscoverX) (VEGFR2) [% control]	% control, p38α (DiscoverX) (p38α) [% control]	% control, MET (DiscoverX) (MET) [% control]	% control, EGFR (DiscoverX) (EGFR [5]) [% control]	% control, ErbB2 (DiscoverX) (ErbB2 [6]) [% control]	% control, BRAF (DiscoverX) (BRAF [7]) [% control]	% control, CDK2 (DiscoverX) (CDK2) [% control]	% inhibition of control activity, PI3K (Eurofins) (PI3K [8])	SMILES
18.1 (7.9) % inhibition	0.1 (2.1) % inhibition	-8.3 (20.8) % inhibition	99	100	100	100	99	100	99	88	100	-0.2 (0.4) % inhibition	COCCCNC(=O)c1nc2c3c4c(sc3ncn2n1)COC(C)(C)C4 [DS11689]
9.6 (0.2) % inhibition	-1.7 (0.8) % inhibition	-27.8 (10.8) % inhibition	73	99	100	100	100	100	100	100	100		COCCCNC(=O)c1nc2c3c4c(sc3ncn2n1)CC[C@H](C)C4 [DS31939]
